# How the values were obtained:
# Test in all cases: post-emergence herbicidal activity, greenhouse
# Type in all cases: in vivo
# Sugar Beet = conditions: Table III
# How it was run: (§1)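 Plants grown from seed or vegetative propagules in topsoil pans on a greenhouse sand bench, watered from below, were atomizer-sprayed at two to three weeks of age. The spray carried about 0.4% by weight emulsifier. Injury relative to unsprayed control pans was scored approximately two and four weeks after treatment.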
# Hemp Sesbania = conditions: Table III
# How it was run: as §1
# Panicum Spp = conditions: Table III
# How it was run: as §1
# Yellow Nutsedge = conditions: Table II
# How it was run: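 After sowing in soil-filled pans and growing under greenhouse conditions, plants at two to three weeks were sprayed post-emergence with the test compound in a formulation containing approximately 0.4% emulsifier by weight. Observations of plant injury, relative to controls, followed at about two and four weeks.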
# Cocklebur = tested on: Cocklebur
# How it was run: as §1
# Downy Brome = conditions: Table II, 2 WAT
# How it was run: as §1
# [1] = 2 WAT, 1.1 kg/h, formulated in anhydrous tetrahydrofuran
# [2] = 2 WAT, 5.6 kg/h, formulated in anhydrous tetrahydrofuran
# [3] = 2 WAT, .28 kg/h, formulated in anhydrous tetrahydrofuran
# [4] = 4 WAT, 1.1 kg/h, formulated in anhydrous tetrahydrofuran
# [5] = 4 WAT, 5.6 kg/h, formulated in anhydrous tetrahydrofuran
# [6] = 4 WAT, .28 kg/h, formulated in anhydrous tetrahydrofuran
compound,measurement,setting,value
"CCOC(=O)CNCP(=O)(O)O[Si](c1ccccc1)(c1ccccc1)C(C)(C)C [Ex. 7, Glycine, N--((([(1,1-Dimethylethyl)Diphenylsilyl]Oxy)Hydroxyphosphinyl)Methyl)-,Ethyl Ester]",Plant Response Index (M),"Sugar Beet; 2 WAT, 1.1 kg/h",1 (25-49% inhibition)
same,Plant Response Index (M),Sugar Beet; [1],1 (25-49% inhibition)
same,Plant Response Index (M),"Sugar Beet; 2 WAT, 5.6 kg/h",1 (25-49% inhibition)
same,Plant Response Index (M),Sugar Beet; [2],3 (75-99% inhibition)
same,Plant Response Index (M),"Sugar Beet; 2 WAT, .28 kg/h",1 (25-49% inhibition)
same,Plant Response Index (M),Sugar Beet; [3],1 (25-49% inhibition)
same,Plant Response Index (M),"Sugar Beet; 4 WAT, 1.1 kg/h",1 (25-49% inhibition)
same,Plant Response Index (M),Sugar Beet; [4],1 (25-49% inhibition)
same,Plant Response Index (M),"Sugar Beet; 4 WAT, 5.6 kg/h",2 (50-74% inhibition)
same,Plant Response Index (M),Sugar Beet; [5],4 (100% inhibition)
same,Plant Response Index (M),"Sugar Beet; 4 WAT, .28 kg/h",1 (25-49% inhibition)
same,Plant Response Index (M),Sugar Beet; [6],1 (25-49% inhibition)
same,Plant Response Index (R),"Hemp Sesbania; 2 WAT, 1.1 kg/h",3 (75-99% inhibition)
same,Plant Response Index (R),Hemp Sesbania; [1],2 (50-74% inhibition)
same,Plant Response Index (R),"Hemp Sesbania; 2 WAT, 5.6 kg/h",1 (25-49% inhibition)
same,Plant Response Index (R),Hemp Sesbania; [2],1 (25-49% inhibition)
same,Plant Response Index (R),"Hemp Sesbania; 2 WAT, .28 kg/h",1 (25-49% inhibition)
same,Plant Response Index (R),Hemp Sesbania; [3],0 (0-24% inhibition)
same,Plant Response Index (R),"Hemp Sesbania; 4 WAT, 1.1 kg/h",4 (100% inhibition)
same,Plant Response Index (R),Hemp Sesbania; [4],2 (50-74% inhibition)
same,Plant Response Index (R),"Hemp Sesbania; 4 WAT, 5.6 kg/h",2 (50-74% inhibition)
same,Plant Response Index (R),Hemp Sesbania; [5],1 (25-49% inhibition)
same,Plant Response Index (R),"Hemp Sesbania; 4 WAT, .28 kg/h",1 (25-49% inhibition)
same,Plant Response Index (R),Hemp Sesbania; [6],0 (0-24% inhibition)
same,Plant Response Index (S),"Panicum Spp; 2 WAT, 1.1 kg/h",4 (100% inhibition)
same,Plant Response Index (S),Panicum Spp; [1],2 (50-74% inhibition)
same,Plant Response Index (S),"Panicum Spp; 2 WAT, 5.6 kg/h",3 (75-99% inhibition)
same,Plant Response Index (S),Panicum Spp; [2],4 (100% inhibition)
same,Plant Response Index (S),"Panicum Spp; 2 WAT, .28 kg/h",3 (75-99% inhibition)
same,Plant Response Index (S),Panicum Spp; [3],1 (25-49% inhibition)
same,Plant Response Index (S),"Panicum Spp; 4 WAT, 1.1 kg/h",4 (100% inhibition)
same,Plant Response Index (S),Panicum Spp; [4],2 (50-74% inhibition)
same,Plant Response Index (S),"Panicum Spp; 4 WAT, 5.6 kg/h",4 (100% inhibition)
same,Plant Response Index (S),Panicum Spp; [5],4 (100% inhibition)
same,Plant Response Index (S),"Panicum Spp; 4 WAT, .28 kg/h",3 (75-99% inhibition)
same,Plant Response Index (S),Panicum Spp; [6],1 (25-49% inhibition)
same,Plant Response Index (G),"Yellow Nutsedge; 2 WAT, 5.6 kg/h",1 (25-49% inhibition)
same,Plant Response Index (G),Yellow Nutsedge; [2],1 (25-49% inhibition)
same,Plant Response Index (G),"Yellow Nutsedge; 2 WAT, 11.2 kg/h",2 (50-74% inhibition)
same,Plant Response Index (G),"Yellow Nutsedge; 2 WAT, 11.2 kg/h, formulated in anhydrous tetrahydrofuran",1 (25-49% inhibition)
same,Plant Response Index (G),"Yellow Nutsedge; 4 WAT, 5.6 kg/h",2 (50-74% inhibition)
same,Plant Response Index (G),Yellow Nutsedge; [5],2 (50-74% inhibition)
same,Plant Response Index (G),"Yellow Nutsedge; 4 WAT, 11.2 kg/h",3 (75-99% inhibition)
same,Plant Response Index (G),"Yellow Nutsedge; 4 WAT, 11.2 kg/h, formulated in anhydrous tetrahydrofuran",2 (50-74% inhibition)
same,Plant Response Index (B),"Cocklebur; Table II, 2 WAT, 5.6 kg/h",3 (75-99% inhibition)
same,Plant Response Index (B),"Cocklebur; Table II, 2 WAT, 5.6 kg/h, formulated in anhydrous tetrahydrofuran",2 (50-74% inhibition)
same,Plant Response Index (B),"Cocklebur; Table II, 2 WAT, 11.2 kg/h",2 (50-74% inhibition)
same,Plant Response Index (B),"Cocklebur; Table II, 2 WAT, 11.2 kg/h, formulated in anhydrous tetrahydrofuran",1 (25-49% inhibition)
same,Plant Response Index (B),"Cocklebur; Table II, 4 WAT, 5.6 kg/h",4 (100% inhibition)
same,Plant Response Index (B),"Cocklebur; Table II, 4 WAT, 5.6 kg/h, formulated in anhydrous tetrahydrofuran",3 (75-99% inhibition)
same,Plant Response Index (B),"Cocklebur; Table II, 4 WAT, 11.2 kg/h",4 (100% inhibition)
same,Plant Response Index (B),"Cocklebur; Table II, 4 WAT, 11.2 kg/h, formulated in anhydrous tetrahydrofuran",3 (75-99% inhibition)
same,Plant Response Index (B),"Cocklebur; Table III, 2 WAT, 1.1 kg/h",2 (50-74% inhibition)
same,Plant Response Index (B),"Cocklebur; Table III, 2 WAT, 1.1 kg/h, formulated in anhydrous tetrahydrofuran",2 (50-74% inhibition)
same,Plant Response Index (B),"Cocklebur; Table III, 2 WAT, 5.6 kg/h",2 (50-74% inhibition)
same,Plant Response Index (B),"Cocklebur; Table III, 2 WAT, 5.6 kg/h, formulated in anhydrous tetrahydrofuran",3 (75-99% inhibition)
same,Plant Response Index (B),"Cocklebur; Table III, 2 WAT, .28 kg/h",1 (25-49% inhibition)
same,Plant Response Index (B),"Cocklebur; Table III, 2 WAT, .28 kg/h, formulated in anhydrous tetrahydrofuran",2 (50-74% inhibition)
same,Plant Response Index (B),"Cocklebur; Table III, 4 WAT, 1.1 kg/h",3 (75-99% inhibition)
same,Plant Response Index (B),"Cocklebur; Table III, 4 WAT, 1.1 kg/h, formulated in anhydrous tetrahydrofuran",2 (50-74% inhibition)
same,Plant Response Index (B),"Cocklebur; Table III, 4 WAT, 5.6 kg/h",3 (75-99% inhibition)
same,Plant Response Index (B),"Cocklebur; Table III, 4 WAT, 5.6 kg/h, formulated in anhydrous tetrahydrofuran",3 (75-99% inhibition)
same,Plant Response Index (B),"Cocklebur; Table III, 4 WAT, .28 kg/h",1 (25-49% inhibition)
same,Plant Response Index (B),"Cocklebur; Table III, 4 WAT, .28 kg/h, formulated in anhydrous tetrahydrofuran",2 (50-74% inhibition)
same,Plant Response Index (J),Downy Brome; 5.6 kg/h,2 (50-74% inhibition)
same,Plant Response Index (J),"Downy Brome; 5.6 kg/h, formulated in anhydrous tetrahydrofuran",1 (25-49% inhibition)
same,Plant Response Index (J),Downy Brome; 11.2 kg/h,2 (50-74% inhibition)
same,Plant Response Index (J),"Downy Brome; 11.2 kg/h, formulated in anhydrous tetrahydrofuran",1 (25-49% inhibition)
